Test results published in US20110104301A1, “METHODS OF REDUCING PAIN AND INFLAMMATION” (Georgetown University, A Congressionally Chartered …, priority 2008, published 2011).

What was measured:
[1] = system: AITC-sensitive DRG neurons; experiment: Voltage- and current-clamp of DRG sensory neurons; assay type: cell-based, mouse; settings: 10 of 11 cells
Description: Electrophysiology. HEK 293F cells were transfected with rat TRPV1, TRPA1, and TRPM8 (gift of David Julius, University of California, San Francisco). Dorsal root ganglia were cultured from adult mice (C57B16/J wild type and TRPV1-null, and mixed B6/129 background TRPA1-null) in Neurobasal +2% B-27 medium (Invitrogen), 0.1% L-glutamine and 1% penicillin/streptomycin. Whole-cell and single-channel patch-clamp recordings were performed by using an EPC8 amplifier (HEKA Electronics). For whole-cell and excised patch recordings the bath solution contained 140 mMNaCl, 4 mMKCl, 1 mMMgCl2, 1.2 mMCaCl2, 10 mMHepes, 10 mM glucose, pH 7.3. For cell-attached experiments, NaCl was replaced with KCl in the bath solution. The pipette solution contained 140 mM NaCl or KCl, 10 mM Hepes, 5 mM EGTA, pH 7.3. For neuronal recording NaCl was replaced with K-gluconate (plus 1 mMATP, 0.2 mM GTP). Solutions were applied via a gravity-fed system. Separate outlets were used to apply capsaicin and AITC solutions to avoid contamination. Voltage-dependent properties were measured as described in Matt and Ahern, J. Physiol. 585:469-482 (2007). Current-voltage measurements comprised a 200-ms ramp from −150 mV to +200 mV. The baseline currents under control conditions were subtracted. For cell-attached experiments, peak amplitudes were measured from all-points histograms, and open probability was measured as NPo>750 ms. Defolliculated Xenopus laevis oocytes were injected with ≈10 ng of hTRPA1 (gift of Ardem Patapoutian, The Scripps Research Institute, La Jolla, Calif.). Oocytes were placed in a Perspex chamber and continuously superfused (5 ml min^−1) with Ca^2+-free solution containing 100 mM NaCl, 2.5 mM KCl, 5 mM Hepes, 1 mM MgC12 and titrated to pH 7.3 with ˜5 mM NaOH.

[2] = target: T1, Drosophila TRPA1 (Drosophila melanogaster, UniProt Q7Z020); experiment: Current-voltage recordings in dTRPA1-expressing HEK293 cells; assay type: cell-based; settings: desflurane at concentrations up to 3 mM
T1 construct: expressed in transfected cells; host or cells: HEK293
T1 sequence (Q7Z020 1-1197): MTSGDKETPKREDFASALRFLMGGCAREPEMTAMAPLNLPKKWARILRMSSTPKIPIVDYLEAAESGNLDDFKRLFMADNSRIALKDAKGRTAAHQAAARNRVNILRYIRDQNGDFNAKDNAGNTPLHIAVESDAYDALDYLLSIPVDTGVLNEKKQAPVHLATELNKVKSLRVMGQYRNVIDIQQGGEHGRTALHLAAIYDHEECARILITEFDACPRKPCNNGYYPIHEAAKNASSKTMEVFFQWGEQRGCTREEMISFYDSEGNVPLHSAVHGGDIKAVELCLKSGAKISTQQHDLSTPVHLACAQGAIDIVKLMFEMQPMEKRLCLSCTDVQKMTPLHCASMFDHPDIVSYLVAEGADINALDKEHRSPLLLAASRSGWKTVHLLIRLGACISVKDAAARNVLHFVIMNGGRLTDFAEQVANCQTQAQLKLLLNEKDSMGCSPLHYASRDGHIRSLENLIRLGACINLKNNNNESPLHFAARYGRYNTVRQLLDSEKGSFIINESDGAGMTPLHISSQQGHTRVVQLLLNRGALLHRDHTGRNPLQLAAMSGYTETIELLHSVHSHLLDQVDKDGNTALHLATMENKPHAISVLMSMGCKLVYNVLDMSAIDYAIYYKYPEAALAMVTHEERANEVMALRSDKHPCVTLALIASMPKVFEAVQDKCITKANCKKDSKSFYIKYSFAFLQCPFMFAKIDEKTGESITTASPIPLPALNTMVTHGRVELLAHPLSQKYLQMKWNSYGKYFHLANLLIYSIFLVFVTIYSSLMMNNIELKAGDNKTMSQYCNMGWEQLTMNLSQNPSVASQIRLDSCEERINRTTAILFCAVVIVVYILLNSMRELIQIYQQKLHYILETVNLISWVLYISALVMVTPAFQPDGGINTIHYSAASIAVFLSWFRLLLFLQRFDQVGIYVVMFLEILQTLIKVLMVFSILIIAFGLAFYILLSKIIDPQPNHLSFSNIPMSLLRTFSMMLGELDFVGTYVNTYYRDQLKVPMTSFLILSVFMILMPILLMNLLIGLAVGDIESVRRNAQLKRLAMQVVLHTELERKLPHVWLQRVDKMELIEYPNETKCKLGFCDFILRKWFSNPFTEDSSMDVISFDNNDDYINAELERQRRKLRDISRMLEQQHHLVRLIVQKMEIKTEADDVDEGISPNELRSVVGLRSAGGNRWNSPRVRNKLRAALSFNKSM
Description: (§1) A genetic approach was used to identify critical sites in TRPA1 and TRPV1 required for activation by general anesthetics. Drosophila TRPA1 is insensitive to desflurane (at concentrations up to 3 mM). […] Note that dTRPA1 is insensitive to AITC. Next, several chimeric TRP proteins containing dTRPA1 (unresponsive to desflurane) and mTRPA1 were tested. For the dTRPA1-mN chimera, the mouse 720 amino acid N-terminus was exchanged for the drosophila N-terminus. The N-terminal domain contains essential binding sites for AITC, and therefore studying this chimera tests an important role for the N-terminus in anesthetic-sensing. […] The mTRPA1-dTM5 construct was then studied, which is the mouse protein containing the fifth transmembrane domain of the drosophila protein.

[3] = target: T2, dTRPA1-mN chimera (UniProt Q7Z020+Q8BLA8); experiment: Current-voltage recordings of chimera dTRPA1-mN; assay type: cell-based; settings: mouse N-terminus substituted
T2 construct: mouse TRPA1 N-terminus (720 amino acids); expressed in transfected cells
T2 sequence (Q8BLA8+Q7Z020 fused, change not shown): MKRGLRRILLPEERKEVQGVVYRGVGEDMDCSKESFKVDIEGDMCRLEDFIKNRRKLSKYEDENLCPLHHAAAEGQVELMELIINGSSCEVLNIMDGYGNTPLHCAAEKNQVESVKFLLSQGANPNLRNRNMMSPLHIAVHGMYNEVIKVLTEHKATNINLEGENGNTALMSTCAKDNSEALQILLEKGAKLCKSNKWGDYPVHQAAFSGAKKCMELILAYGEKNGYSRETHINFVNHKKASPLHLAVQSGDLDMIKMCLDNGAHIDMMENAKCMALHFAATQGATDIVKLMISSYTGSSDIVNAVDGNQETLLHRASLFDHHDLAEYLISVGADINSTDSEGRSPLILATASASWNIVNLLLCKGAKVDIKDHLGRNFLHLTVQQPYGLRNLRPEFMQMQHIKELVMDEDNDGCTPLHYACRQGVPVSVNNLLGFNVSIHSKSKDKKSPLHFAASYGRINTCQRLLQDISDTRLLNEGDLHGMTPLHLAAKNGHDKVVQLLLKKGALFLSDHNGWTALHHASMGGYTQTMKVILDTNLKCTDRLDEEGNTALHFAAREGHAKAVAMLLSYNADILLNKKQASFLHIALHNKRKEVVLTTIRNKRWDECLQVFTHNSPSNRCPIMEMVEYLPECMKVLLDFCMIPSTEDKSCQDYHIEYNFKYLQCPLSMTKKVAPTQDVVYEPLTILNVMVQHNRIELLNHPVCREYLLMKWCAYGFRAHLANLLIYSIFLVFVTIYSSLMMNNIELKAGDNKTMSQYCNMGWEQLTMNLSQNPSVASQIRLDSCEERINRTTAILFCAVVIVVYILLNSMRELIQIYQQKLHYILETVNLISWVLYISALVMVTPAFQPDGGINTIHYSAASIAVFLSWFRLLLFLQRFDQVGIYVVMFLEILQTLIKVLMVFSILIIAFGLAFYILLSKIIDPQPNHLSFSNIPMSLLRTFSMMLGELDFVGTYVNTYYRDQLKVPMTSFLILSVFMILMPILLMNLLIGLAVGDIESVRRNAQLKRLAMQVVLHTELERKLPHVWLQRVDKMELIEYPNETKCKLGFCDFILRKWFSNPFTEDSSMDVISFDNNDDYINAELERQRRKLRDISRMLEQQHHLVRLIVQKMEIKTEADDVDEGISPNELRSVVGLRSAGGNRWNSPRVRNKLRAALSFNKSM
Description: as §1

[4] = target: TRPV1 (Rattus norvegicus, UniProt O35433); experiment: Voltage-clamp of TRPV1-expressing Xenopus oocytes (capsaicin, protons, heat); assay type: cell-based; settings: PDBu 200 nM, 3 minutes
Chain of TRPV1 (O35433 whole entry, the tested form may be a part): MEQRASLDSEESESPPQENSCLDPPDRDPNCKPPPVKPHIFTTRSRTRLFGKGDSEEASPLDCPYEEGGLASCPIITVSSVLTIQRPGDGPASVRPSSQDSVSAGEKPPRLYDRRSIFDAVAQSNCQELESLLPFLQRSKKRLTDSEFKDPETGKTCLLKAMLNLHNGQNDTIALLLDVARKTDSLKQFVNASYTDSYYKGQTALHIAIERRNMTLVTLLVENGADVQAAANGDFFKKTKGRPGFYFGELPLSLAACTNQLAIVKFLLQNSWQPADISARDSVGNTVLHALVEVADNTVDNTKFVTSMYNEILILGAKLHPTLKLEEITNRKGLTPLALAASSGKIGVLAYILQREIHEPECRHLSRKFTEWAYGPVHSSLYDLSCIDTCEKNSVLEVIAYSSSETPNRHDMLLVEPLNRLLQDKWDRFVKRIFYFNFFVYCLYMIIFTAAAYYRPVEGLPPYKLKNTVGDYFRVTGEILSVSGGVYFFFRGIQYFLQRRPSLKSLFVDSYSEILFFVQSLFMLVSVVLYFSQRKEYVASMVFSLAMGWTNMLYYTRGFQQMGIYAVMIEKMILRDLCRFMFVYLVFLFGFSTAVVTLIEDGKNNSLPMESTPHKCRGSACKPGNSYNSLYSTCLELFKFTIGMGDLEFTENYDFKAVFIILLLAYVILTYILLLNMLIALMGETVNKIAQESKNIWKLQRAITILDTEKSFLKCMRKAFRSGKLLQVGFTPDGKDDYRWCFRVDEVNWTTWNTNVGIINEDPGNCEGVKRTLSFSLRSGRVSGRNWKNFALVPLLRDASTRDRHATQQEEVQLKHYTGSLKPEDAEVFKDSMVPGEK
Description: Oocyte electrophysiology. […] Oocytes were placed in a Perspex chamber and continuously superfused (5 ml min-1) with Ca2+-free solution containing (in mM): 100 NaCl, 2.5 KCl, 5 HEPES, 1 MgCl2 and titrated to pH 7.3 with ˜5 mM NaOH. For solutions <pH 6.0, HEPES was replaced with either 5 mM MES or 5 mM sodium citrate. Oocytes were routinely voltage-clamped at −60 mV at 22-23° C. For heat activation, bath temperature was raised from ˜22-50° C. over ˜100 s using an in-line solution heater (Warner Instruments). The temperature was continuously monitored with a probe placed within 2 mm of the oocyte. The temperature-activation threshold was defined as a 20% increase in current above baseline.
Volatile general anesthetics. Saturated stock solutions of volatile general anesthetics (VGAs) were prepared in gas-tight bottles by dissolving excess anesthetic agents in bath solutions and stirring vigorously overnight. From these stock solutions fresh dilutions were made up every 40-60 minutes. Concentrations of volatile anesthetics in the bath solutions were verified using a modified head-space gas chromatography method. The gas chromatograph (Carlo Erba, Milan, Italy) was equipped with a flame ionization detector (FID) and mass spectrometer. The carrier gas was hydrogen (60 kPa column head pressure) and the fused silica capillary column, coated with polysiloxane SE-30, was 25 m×0.25 mm. Injector temperature was 250° C., FID temperature was 300° C. and the oven was maintained at 90° C. Standards were prepared from a mixture of halothane, isoflurane, and sevoflurane dissolved in acetonitrile with enflurane as an internal standard.

[5] = target: T3, mutant S502A/S800A TRPV1 (Rattus norvegicus, UniProt O35433, S502A/S800A); experiment: Heat activation in oocytes expressing mutant S502A/S800A TRPV1; assay type: cell-based
T3 construct: expressed in transfected cells; host or cells: Xenopus laevis oocytes (cRNA injection)
T3 sequence (O35433 whole entry S502A/S800A): as the sequence (O35433 whole entry, the tested form may be a part) above, with S502A, S800A counted along it
Description: Oocyte electrophysiology. […] Oocytes were placed in a Perspex chamber and continuously superfused (5 ml min-1) with Ca2+-free solution containing (in mM): 100 NaCl, 2.5 KCl, 5 HEPES, 1 MgCl2 and titrated to pH 7.3 with 5 mM NaOH. For solutions <pH 6.0, HEPES was replaced with either 5 mM MES or 5 mM sodium citrate. Oocytes were routinely voltage-clamped at -60 mV at 22-23° C.

Row | SMILES | Isoflurane-responsive neurons also sensitive to AITC [1] | Sensitivity of Drosophila TRPA1 [2] | Response of dTRPA1-mN chimera [3] | Temperature threshold of TRPV1 heat activation, PDBu alone [4] | Effect of PDBu in oocytes expressing mutant TRPV1 [5]
1 | C=CCN=C=S [AITC] | 91% | insensitive | conferred AITC-sensitivity | – | –
2 | CCCC(=O)O[C@@H]1[C@@H](C)[C@@]2(O)[C@@H](C=C(CO)C[C@]3(O)C(=O)C(C)=C[C@@H]23)[C@@H]2C(C)(C)[C@]12OC(=O)CCC [PDBu, phorbol 12, 13 dibutyrate] | – | – | – | 39.3±2.3 °C | did not produce a significant effect
